Series [1] concerns Hepatitis B virus. Briefly: Antiviral activity against HBV infected in human HepG2-NTCP cells assessed as reduction in HBeAg secretion at 1 to 10 uM incubated for 24 hrs followed by replacement with fresh medium and measured at day 5 post infection by ELISA. The note with it: dose 1-10 µM. The series is classed as functional, organism-based.
In series [2] the target is T1, Hepatic sodium/bile acid cotransporter (Homo sapiens, UniProt Q14973).
T1 sequence (Q14973 whole entry): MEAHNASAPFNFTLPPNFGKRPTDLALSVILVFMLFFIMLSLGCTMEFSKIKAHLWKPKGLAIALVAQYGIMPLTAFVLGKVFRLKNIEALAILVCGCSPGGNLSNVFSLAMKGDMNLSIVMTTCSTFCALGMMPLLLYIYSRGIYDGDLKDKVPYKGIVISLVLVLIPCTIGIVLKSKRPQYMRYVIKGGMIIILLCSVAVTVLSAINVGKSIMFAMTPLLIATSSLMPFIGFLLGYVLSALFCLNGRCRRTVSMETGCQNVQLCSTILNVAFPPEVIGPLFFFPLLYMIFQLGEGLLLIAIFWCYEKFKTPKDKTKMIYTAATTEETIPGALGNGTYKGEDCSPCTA
Briefly: Inhibition of human NTCP-mediated [3H]-TCA uptake expressed in human HepG2 cells at 3.3 uM incubated for 10 mins by liquid scintillation counter analysis. The series is classed as cell-based. The following applies: hepg2, 10 min.

Series [3] has as its system Hepatitis B virus. Briefly: Antiviral activity against HBV infected in human HepG2-NTCP cells assessed as reduction in HBeAg secretion measured at day 7 post infection by ELISA. The series is classed as functional, organism-based. The note with it: HepG2, 168 h. (In general: ELISA stands for enzyme-linked immunosorbent assay.)
For series [4], the system named is Hepatitis delta virus. In words: Antiviral activity against HDV infected in human HepG2-NTCP cells assessed as reduction in intranuclear accumulation of HDV delta antigen at 10 uM incubated for 24 hrs followed by replacement with fresh medium and measured at day 5 post infection by DAPI staining based confocal microscopic analysis (reference value: 12.1 %). The series is classed as functional. On the set-up: scale not given: the % may be the effect or the level left.

Series [5] has as its system Hepatitis B virus. Briefly: Antiviral activity against HBV infected in human HepG2-NTCP cells assessed as reduction in HBeAg secretion incubated for 24 hrs followed replacement with fresh medium and measured at day 5 post infection by ELISA. The series is classed as functional, organism-based.
The subject of series [6] is Hepatitis B virus. In words: Antiviral activity against HBV infected in human HepG2-NTCP cells assessed as reduction in HBeAg secretion at 111 to 1000 nM incubated for 24 hrs followed by replacement with fresh medium and measured at day 5 post infection by ELISA. The series is classed as functional, organism-based. The note with it: dose 111-1000 nM.
Series [7] has as its system Hepatitis B virus. Briefly: Antiviral activity against HBV infected in human HepG2-NTCP cells assessed as reduction in intracellular HBV RNA level at 1 uM by qPCR analysis. The series is classed as functional, organism-based.
The subject of series [8] is Hepatitis B virus. In words: Antiviral activity against HBV infected in human HepG2-NTCP cells assessed as reduction in intracellular accumulation of HBcAg at 1 uM by immunostaining based fluorescence microscopic analysis. The series is classed as functional, organism-based.
For series [9], the system named is Hepatitis B virus. In words: Antiviral activity against HBV infected in human HepG2-NTCP cells assessed as reduction in intracellular accumulation of HBsAg at 1 uM by immunostaining based fluorescence microscopic analysis. The series is classed as functional, organism-based.
The subject of series [10] is Hepatitis delta virus. In words: Antiviral activity against HDV infected in human HepG2-NTCP cells assessed as reduction in intranuclear accumulation of HDV delta antigen at 5 uM incubated for 24 hrs followed by replacement with fresh medium and measured at day 5 post infection by DAPI staining based confocal microscopic analysis (reference value: 12.1 %). More on the design: scale not given: the % may be the effect or the level left. The series is classed as functional.

Series [11] deals with Hepatitis B virus. In words: Antiviral activity against HBV infected in human HepG2-NTCP cells assessed as reduction in HBeAg secretion at 1 uM preincubated with compound followed by viral infection by ELISA. The series is classed as functional, organism-based.
Series [12] has as its system Hepatitis B virus. In words: Antiviral activity against HBV infected in human HepG2-NTCP cells assessed as reduction in HBeAg secretion at 1 uM compound added along with viral infection by ELISA. The series is classed as functional, organism-based.
Series [13] has as its system Hepatitis B virus. In words: Antiviral activity against HBV infected in human HepG2-NTCP cells assessed as reduction in HBeAg secretion at 1 uM pre-infected with virus followed by compound addition by ELISA. The series is classed as functional, organism-based.
Series [14] addresses T1, Hepatic sodium/bile acid cotransporter. In words: Inhibition of FITC-labeled HBV Pre-S1 polypeptide binding to human NTCP expressed in HepG2 cells after 2 to 3 hrs by confocal microscopic analysis. The series is classed as cell-based. The note with it: time 2-3 hrs.
The subject of series [15] is HepG2. Briefly: Cytotoxicity against human HepG2 cells expressing NTCP assessed as reduction in cell viability at 10 uM after 48 hrs by alamar blue assay. The series is classed as cell-based. The following applies: hepg2, 48 h. In general terms: The colour change of resazurin is a common sign of viable cells or microbes.
The test system of series [16] is Hepatocyte. In words: Cytotoxicity against primary tupaia hepatocytes expressing NTCP assessed as reduction in cell viability at 100 uM after 48 hrs by Cell-Titer Glo assay. The series is classed as cell-based. The note with it: scandentia.
In series [17] the test system is HepG2. Briefly: Effect on NTCP surface expression in human HepG2-NTCP cells assessed as reduction in NTCP surface expression level after 2 hrs by immunostaining based assay. The series is classed as functional, cell-based.
The target of series [18] is T1, Hepatic sodium/bile acid cotransporter. In words: Inhibition of human NTCP-mediated [3H]-TCA uptake expressed in human HepG2 cells at 2 uM. The series is classed as cell-based. The following applies: hepg2, 2 µM.
Series [19] addresses T2, Ileal sodium/bile acid cotransporter (Homo sapiens, UniProt Q12908).
T2 sequence (Q12908 whole entry): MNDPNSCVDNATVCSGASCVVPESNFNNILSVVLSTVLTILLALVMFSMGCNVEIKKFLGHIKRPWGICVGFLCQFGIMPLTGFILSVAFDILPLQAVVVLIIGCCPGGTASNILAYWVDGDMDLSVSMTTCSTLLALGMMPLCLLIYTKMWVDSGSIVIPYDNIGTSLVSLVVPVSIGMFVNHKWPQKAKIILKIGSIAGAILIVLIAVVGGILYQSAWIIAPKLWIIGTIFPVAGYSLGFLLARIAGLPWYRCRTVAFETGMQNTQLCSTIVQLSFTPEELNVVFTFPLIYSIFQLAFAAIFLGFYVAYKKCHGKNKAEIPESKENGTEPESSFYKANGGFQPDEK
In words: Inhibition of human ASBT-mediated [3H]-TCA uptake expressed in human HepG2 cells at 2 uM. The series is classed as cell-based. The note with it: hepg2, 2 µM.

In series [20] the target is T1, Hepatic sodium/bile acid cotransporter. Briefly: Inhibition of human NTCP-mediated [3H]-Estrone sulfate uptake expressed in human HepG2 cells at 2 uM. The series is classed as cell-based. The note with it: hepg2, 2 µM.
The target in series [21] is T3, Solute carrier organic anion transporter family member 1B1 (Homo sapiens, UniProt Q9Y6L6).
T3 sequence (Q9Y6L6 whole entry): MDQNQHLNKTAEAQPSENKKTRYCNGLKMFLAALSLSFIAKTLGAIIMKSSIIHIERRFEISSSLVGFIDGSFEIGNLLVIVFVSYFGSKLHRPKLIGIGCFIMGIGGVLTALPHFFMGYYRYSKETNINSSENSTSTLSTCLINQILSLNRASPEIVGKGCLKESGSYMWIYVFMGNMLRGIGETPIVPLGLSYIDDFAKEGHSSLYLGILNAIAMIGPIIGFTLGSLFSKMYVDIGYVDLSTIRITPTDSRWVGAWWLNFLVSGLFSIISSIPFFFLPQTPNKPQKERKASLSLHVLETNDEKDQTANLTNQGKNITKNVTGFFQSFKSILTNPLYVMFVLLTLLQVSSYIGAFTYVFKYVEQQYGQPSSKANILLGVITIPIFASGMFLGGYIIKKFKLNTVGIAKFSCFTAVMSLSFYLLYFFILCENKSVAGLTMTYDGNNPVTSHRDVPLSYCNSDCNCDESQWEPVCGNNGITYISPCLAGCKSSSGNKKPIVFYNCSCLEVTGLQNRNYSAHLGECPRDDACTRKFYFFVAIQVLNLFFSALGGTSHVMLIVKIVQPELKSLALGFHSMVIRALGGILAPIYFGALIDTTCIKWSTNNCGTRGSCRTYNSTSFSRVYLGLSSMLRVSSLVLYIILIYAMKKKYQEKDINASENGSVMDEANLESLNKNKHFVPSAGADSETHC
In words: Inhibition of human OATP1B1-mediated [3H]-Estrone sulfate uptake expressed in human HepG2 cells at 2 uM. The series is classed as cell-based. The note with it: hepg2, 2 µM.

Series [22] concerns Hepatitis B virus. In words: Antiviral activity against HBV infected in human HepG2-NTCP cells assessed as reduction in HBeAg secretion preincubated for 2 hrs followed by viral infection by ELISA. The series is classed as functional, organism-based.
For series [23], the target named is T1, Hepatic sodium/bile acid cotransporter. In words: Inhibition of human NTCP-mediated [3H]-TCA uptake expressed in human HepG2 cells. The series is classed as cell-based. The note with it: human, hepg2.
Series [24] has as its system HepG2. In words: Inhibition of monkey NTCP-mediated [3H]-TCA uptake expressed in human HepG2 cells. The series is classed as cell-based. The note with it: Macaca mulatta.
Series [25] concerns the target T4, Hepatic sodium/bile acid cotransporter (Mus musculus, UniProt O08705).
T4 sequence (O08705 whole entry): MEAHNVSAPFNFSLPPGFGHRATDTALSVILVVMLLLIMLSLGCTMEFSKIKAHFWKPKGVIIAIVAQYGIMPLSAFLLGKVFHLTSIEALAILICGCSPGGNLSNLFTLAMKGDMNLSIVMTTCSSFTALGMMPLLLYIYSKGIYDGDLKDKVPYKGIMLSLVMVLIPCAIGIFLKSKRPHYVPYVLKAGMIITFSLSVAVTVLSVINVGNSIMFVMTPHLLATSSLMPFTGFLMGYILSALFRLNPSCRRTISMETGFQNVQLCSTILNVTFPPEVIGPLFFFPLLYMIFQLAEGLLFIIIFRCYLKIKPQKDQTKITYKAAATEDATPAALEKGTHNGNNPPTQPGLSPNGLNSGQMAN
Briefly: Inhibition of mouse NTCP-mediated [3H]-TCA uptake expressed in human HepG2 cells. The series is classed as cell-based.

Series [26] concerns HepG2. Briefly: Inhibition of tree shrew NTCP-mediated [3H]-TCA uptake expressed in human HepG2 cells. The series is classed as cell-based. The note with it: Scandentia.
In series [27] the target is T1, Hepatic sodium/bile acid cotransporter. In words: Inhibition of human NTCP-mediated NQL-064 uptake expressed in human HepG2 cells. The series is classed as cell-based.
The target in series [28] is T4, Hepatic sodium/bile acid cotransporter. In words: Inhibition of mouse NTCP-mediated NQL-064 uptake expressed in human HepG2 cells. The series is classed as cell-based.
Series [29] relates to HepG2. In words: Inhibition of monkey NTCP-mediated NQL-064 uptake expressed in human HepG2 cells. The series is classed as cell-based. The following applies: Macaca mulatta.
Series [30] concerns HepG2. In words: Inhibition of tree shrew NTCP-mediated NQ-064 uptake expressed in human HepG2 cells. The note with it: Scandentia. The series is classed as cell-based.

Molecules are shown by their SMILES. Active and inactive are the calls of the source. The calls are words filed in the database; no cut-off is given here.

For orientation: IC50 means the midpoint of a concentration-inhibition curve. Turning to `C[C@H](CCC(=O)NCCS(=O)(=O)O)[C@H]1CC[C@H]2[C@@H]3[C@@H](O)C[C@@H]4C[C@H](O)CC[C@]4(C)[C@H]3CC[C@]12C` [TAURURSODIOL], the outcome in [1] was inactive. Also, the “inhibition (INH)” value in [2] is “Not Active”. Further, in series [3], the IC50 stood at 3000 nM. Besides, the Activity in series [4] amounted to 7.1%.

On to `C[C@H](CCC(=O)NCCS(=O)(=O)O)[C@H]1CC[C@H]2[C@@H]3[C@@H](O)C[C@@H]4C[C@H](OCc5cn([C@@H]6CC[C@@]7(C)[C@@H](C6)C[C@H](O)[C@@H]6[C@@H]7CC[C@]7(C)[C@@H]([C@H](C)CCC(=O)NCCS(=O)(=O)O)CC[C@@H]67)nn5)CC[C@]4(C)[C@H]3CC[C@]12C`, for which the IC50 in series [5] was determined as 12 nM. In addition, the outcome in [6], in series [7], in [8], in series [9], in series [11] and in [12] was Active. Further, the Activity in [10] is 1.8%; in series [15], “Non-Toxic”; in [16] it was “Non-Toxic”. Further, the result in series [13], in [17] and in series [22] was inactive. Further, the “inhibition (INH)” value in series [14] is given as “Active”; in series [18] it was “Active”; in series [19] it was “Not Active”; in [20], “Active”; in series [21] it was “Not Active”; in series [23], “Active”. For the same molecule, the figures for the “inhibition (INH)” value in series [25], in [27] and in series [28] were “Not Active”, “Active” and “Not Active”, respectively. Moreover, the inhibition result in series [24], in series [26], in [29] and in series [30] was “inactive” in each case.

Take `CC(=O)O[C@@H]1CC[C@@]2(C)[C@@H](C1)C[C@H](O)[C@@H]1[C@@H]2CC[C@]2(C)[C@@H]([C@H](C)CCC(=O)NCCS(=O)(=O)O)CC[C@@H]12`: the outcome in series [1] was inactive. In addition, the “inhibition (INH)” value in [2] was “Not Active”.

The values above are taken from ChEMBL document CHEMBL4834431, “Design of Dimeric Bile Acid Derivatives as Potent and Selective Human NTCP Inhibitors” (J Med Chem, 2021).
